# From ChEMBL document CHEMBL5113507, “Discovery of potent ebola entry inhibitors with (3S,4aS,8aS)-2-(3-amino-2-hydroxypropyl) decahydroisoquinoline-3-carboxamide scaffold” (Eur J Med Chem, 2022)
# Legend:
# [1] = Cytotoxicity against human Huh-7 cells assessed as reduction in cell viability by cellular ATP method; assay type: toxicity, cell-based
SMILES,IC50 (cells),CC50 [1]
CC(C)(C)NC(=O)[C@@H]1C[C@@H]2CCCC[C@@H]2CN1C[C@@H](O)[C@H](Cc1ccccc1)NC(=O)[C@H](CC(N)=O)NC(=O)c1ccc2ccccc2n1,10.5 µM,–
CC(C)(C)NC(=O)[C@@H]1C[C@@H]2CCCC[C@@H]2CN1C[C@H](O)CNCCc1ccc(Cl)cc1,–,4.04 µM
CN(C)CCOc1ccc(/C(=C(/CCCl)c2ccccc2)c2ccccc2)cc1 [TOREMIFENE],0.17 µM,9.31 µM
